± gives the expanded uncertainty stated by the source.
Experiment: xn = mol fraction of the nth substance listed
Conditions: 100 kPa, Liquid; for speed of sound: Frequency=3 MHz, Single path-length method; for mass density: Vibrating tube method

CCCCNCCCC [dibutylamine] + CCC(C)O
Conditions | mass density, 293.15 K [kg/m3] | mass density, 298.15 K [kg/m3] | mass density, 303.15 K [kg/m3] | mass density, 308.15 K [kg/m3] | speed of sound, 293.15 K [m/s] | speed of sound, 298.15 K [m/s] | speed of sound, 303.15 K [m/s] | speed of sound, 308.15 K [m/s]
x1 = 0.0995 | 802.339 ± 1.4 | 798.045 ± 1.4 | 793.785 ± 1.4 | 789.452 ± 1.4 | 1242.3 ± 6.2 | 1223.7 ± 6.2 | 1205 ± 6.2 | 1186.7 ± 6.2
x1 = 0.2027 | 796.429 ± 1.4 | 792.197 ± 1.4 | 787.914 ± 1.4 | 783.574 ± 1.4 | 1249.9 ± 6.2 | 1231 ± 6.2 | 1211.9 ± 6.2 | 1193.6 ± 6.2
x1 = 0.3027 | 791.522 ± 1.4 | 787.26 ± 1.4 | 782.952 ± 1.4 | 778.597 ± 1.4 | 1254.5 ± 6.2 | 1235.3 ± 6.2 | 1216.2 ± 6.2 | 1197.1 ± 6.2
x1 = 0.3993 | 786.764 ± 1.4 | 782.487 ± 1.4 | 778.177 ± 1.4 | 773.83 ± 1.4 | 1257.8 ± 6.2 | 1238.8 ± 6.2 | 1219.4 ± 6.2 | 1200.1 ± 6.2
x1 = 0.4995 | 781.846 ± 1.4 | 777.578 ± 1.4 | 773.281 ± 1.4 | 768.951 ± 1.4 | 1260.6 ± 6.2 | 1241.1 ± 6.2 | 1221.7 ± 6.2 | 1202.6 ± 6.2
x1 = 0.6007 | 776.991 ± 1.4 | 772.741 ± 1.4 | 768.441 ± 1.4 | 764.17 ± 1.4 | 1261 ± 6.2 | 1241.4 ± 6.2 | 1221.9 ± 6.2 | 1202.6 ± 6.2
x1 = 0.7 | 772.61 ± 1.4 | 768.394 ± 1.4 | 764.156 ± 1.4 | 759.896 ± 1.4 | 1261.9 ± 6.3 | 1242.7 ± 6.3 | 1223.1 ± 6.3 | 1203.9 ± 6.3
x1 = 0.8002 | 768.643 ± 1.4 | 764.449 ± 1.4 | 760.24 ± 1.4 | 756.011 ± 1.4 | 1263.6 ± 6.3 | 1243.7 ± 6.3 | 1224 ± 6.3 | 1204.4 ± 6.3
x1 = 0.8989 | 764.755 ± 1.4 | 760.595 ± 1.4 | 756.428 ± 1.4 | 752.248 ± 1.4 | 1264.1 ± 6.3 | 1244.4 ± 6.3 | 1224.6 ± 6.3 | 1204.8 ± 6.3
x1 = 1 | 759.579 ± 1.4 | 755.48 ± 1.4 | 751.374 ± 1.4 | 747.268 ± 1.4 | 1260.1 ± 6.3 | 1240.1 ± 6.3 | 1220.3 ± 6.3 | 1200.6 ± 6.3
